From ChEMBL document CHEMBL3124857, “Encoded library technology as a source of hits for the discovery and lead optimization of a potent and selective class of bactericidal direct inhibitors of Mycobacterium tuberculosis InhA” (J Med Chem, 2014)
≈ marks a conversion by molar mass, not a printed value.

Key:
[1] = tested on: Mycobacterium tuberculosis; test: Antitubercular activity against wild type Mycobacterium tuberculosis H37Rv ATCC 25618 assessed as growth inhibition after 6 days by resazurin dye-based assay; type: functional; conditions: H37Rv ATCC 25618, 144 h
[2] = biological target: T1, Enoyl-[acyl-carrier-protein] reductase [NADH] (Mycobacterium tuberculosis, UniProt P9WGR1); test: Inhibition of Mycobacterium tuberculosis full length biotinylated InhA (270 amino acids) using DDCoA as substrate assessed as NADH oxidation by fluorimetric analysis
T1 sequence (P9WGR1 whole entry): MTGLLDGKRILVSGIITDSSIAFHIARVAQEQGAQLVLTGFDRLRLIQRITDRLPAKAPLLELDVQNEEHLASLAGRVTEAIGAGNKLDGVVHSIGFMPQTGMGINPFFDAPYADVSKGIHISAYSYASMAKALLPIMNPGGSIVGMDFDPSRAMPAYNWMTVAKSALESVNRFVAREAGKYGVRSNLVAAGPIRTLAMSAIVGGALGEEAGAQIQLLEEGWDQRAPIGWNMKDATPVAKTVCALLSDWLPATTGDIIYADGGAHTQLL

SMILES | MIC90 [1] [µM] | IC50 [2] [nM]
CCc1cc(C(=O)N[C@@H]2C[C@@H](C(=O)Nc3cnn(CC)n3)N(C(=O)c3coc4ccccc34)C2)n(C)n1 | 4 (≈ 2.02 µg/mL) | 3
CCCc1cc(C(=O)N[C@@H]2C[C@@H](C(=O)NCC(=O)OC)N(C(=O)c3coc4ccccc34)C2)n(C)n1 | 0.5 (≈ 0.248 µg/mL) | 22
CCc1cc(C(=O)N[C@@H]2C[C@@H](C(=O)NCC3CCCO3)N(C(=O)c3coc4ccccc34)C2)n(C)n1 (some centres undefined) | 4 (≈ 1.97 µg/mL) | 45
CCc1cc(C(=O)N[C@@H]2C[C@@H](C(=O)NCc3nc(C)no3)N(C(=O)c3coc4ccccc34)C2)n(CC)n1 | 0.5 (≈ 0.26 µg/mL) | 4
CCc1cc(C(=O)N[C@@H]2CCN(C(=O)c3coc4ccccc34)C2)n(C)n1 | > 31 | 120
CCc1cc(C(=O)N[C@@H]2C[C@@H](C(=O)NCc3ccc4c(c3)B(O)OC4)N(C(=O)c3coc4ccccc34)C2)n(CC)n1 | 0.2 (≈ 0.114 µg/mL) | 2
CCc1cc(C(=O)N[C@@H]2C[C@@H](C(=O)NCCc3ccccn3)N(C(=O)c3coc4ccccc34)C2)n(C)n1 | 1 (≈ 0.515 µg/mL) | 25
CCc1cc(C(=O)N[C@@H]2C[C@@H](C(=O)NCc3ccn(CC)n3)N(C(=O)c3coc4ccccc34)C2)n(C)n1 | 4 (≈ 2.07 µg/mL) | 32
CCc1cc(C(=O)N[C@@H]2C[C@@H](C(=O)NCC(=O)OC)N(C(=O)c3coc4ccccc34)C2)n(CC)n1 | 0.05 (≈ 0.0248 µg/mL) | 3
CCc1cc(C(=O)N[C@@H]2C[C@@H](C(=O)Nc3ccn(Cc4ccc(F)cc4)n3)N(C(=O)c3coc4ccccc34)C2)n(C)n1 | 4 (≈ 2.33 µg/mL) | 5
CCc1cc(C(=O)N[C@@H]2C[C@@H](C(=O)NCC3OB(O)c4ccccc43)N(C(=O)c3coc4ccccc34)C2)n(C)n1 (some centres undefined) | 2 (≈ 1.11 µg/mL) | 35
CCc1cc(C(=O)N[C@@H]2C[C@@H](C(=O)Nc3ccn(Cc4c(F)cccc4F)n3)N(C(=O)c3coc4ccccc34)C2)n(C)n1 | 0.7 (≈ 0.421 µg/mL) | 4
CCc1cc(C(=O)N[C@@H]2C[C@@H](C(=O)Nc3ccn(C)n3)N(C(=O)c3coc4ccccc34)C2)n(C)n1 | 4 (≈ 1.96 µg/mL) | 7
CCc1cc(C(=O)N[C@@H]2C[C@@H](C(=O)NCC(=O)OC)N(C(=O)c3coc4ccccc34)C2)n(Cc2ccccc2)n1 | > 31 | > 1000
CCc1cc(C(=O)N[C@@H]2C[C@@H](C(=O)Nc3ccccn3)N(C(=O)c3coc4ccccc34)C2)n(C)n1 | 4 (≈ 1.95 µg/mL) | 11
CCc1cc(C(=O)N[C@@H]2C[C@@H](C(=O)Nc3ccn(CC4CCCCC4)n3)N(C(=O)c3coc4ccccc34)C2)n(C)n1 | > 31 | > 1000
CCc1cc(C(=O)N[C@@H]2C[C@@H](C(=O)NCc3ccc(C(F)(F)F)cc3)N(C(=O)c3coc4ccccc34)C2)n(C)n1 | 16 (≈ 9.08 µg/mL) | 42
